Where two headings read alike, the source gives them in different places. Values belong to the compound of their own block, whether it stands above or below them.
What was measured:
OCT2/MATE1 = settings: in vitro; pazopanib as OCT1/MATE1 inhibitor (so in the source); cited from earlier work
[1] = Metformin trough plasma concentration; assay type: in vivo, human; settings: n = 18
[2] = exceeds the glomerular filtration rate; cited from earlier work
[3] = tested on: organic cation transporter 2 (OCT2); settings: in vitro studies; cited from earlier work
[4] = tested on: multidrug and toxin extrusion protein 1 (MATE1); settings: in vitro studies; cited from earlier work
[5] = cited from earlier work
[6] = Trifluridine plasma pharmacokinetics, three-phase crossover study in patients; assay type: in vivo; settings: human, oral, median Tmax, range over the three phases, phases A, B and C

Compound: N.N.[Cl][Pt][Cl] [cisplatin]
change in cisplatin exposure when combined with pazopanib (OCT2/MATE1): significant in vitro increase

geometric mean Ctrough ([1]; metformin 500 mg b.i.d. in combination with trifluridine/tipiracil): 240 ng/mL
geometric mean Ctrough ([1]; metformin monotherapy (day 14)): 150 ng/mL
Compound: CN(C)C(=N)N=C(N)N [metformin]

Compound: N=C1CCCN1Cc1nc(O)nc(O)c1Cl [tipiracil]
renal clearance [2]: ~ 300 mL/min
interaction with OCT2 [3]: substrate and inhibitor
interaction with MATE1 [4]: substrate and inhibitor

Tmax [6]: 46.8 to 60 min
Compound: O=c1[nH]c(=O)n([C@H]2C[C@H](O)[C@@H](CO)O2)cc1C(F)(F)F [trifluridine]
increase of area under the curve vs normal renal function (≥ 90 mL/min) ([5]; mild renal impairment (creatinine clearance between 60 and 89 mL/min)): 31%
increase of area under the curve vs normal renal function (≥ 90 mL/min) ([5]; moderate renal impairment (between 30 and 59 mL/min)): 43%
